These results are taken from the NIST ThermoML archive (doi:10.1021/je9005689).

For data set [1] the following is noted: Crystal; DTA.
Data set [2] is described as follows: Molar enthalpy of transition or fusion. Conditions: Crystal; DSC.

± gives the expanded uncertainty stated by the source.

As for `COc1cnc(Cl)nc1Cl` [2,4-dichloro-5-methoxypyrimidine], the Normal melting temperature in data set [1] came to 69.00 ± 0.5 °C. In addition, the “Molar enthalpy of transition or fusion” value in data set [2] was determined as 4.22 ± 0.1 kcal/mol.
